From patent publication US9518018B2, “3-alkoxy, thioalkyl and amino-4-amino-6-(substituted)picolinates and their use as herbicides” (Dow AgroSciences LLC, priority 2011, dated 2016)

Tested on: desired test plant species
Test: Foliar-applied postemergence herbicidal activity in direct seeded rice (Table 6)
Type: in vivo
Details: 21 DAA
Excerpt: Seeds or nutlets of the desired test plant species were planted in a soil matrix prepared by mixing a loam soil (43 percent silt, 19 percent clay, and 38 percent sand, with a pH of about 8.1 and an organic matter content of about 1.5 percent) and river sand in an 80 to 20 ratio. The soil matrix was contained in plastic pots with a surface area of 139.7 cm^2. When required to ensure good germination and healthy plants, a fungicide treatment and/or other chemical or physical treatment was applied. The plants were grown for 10-17 d in a greenhouse with an approximate 14-h photoperiod which was maintained at about 29° C. during the day and 26° C. during the night. Nutrients and water were added on a regular basis and supplemental lighting was provided with overhead metal halide 1000-Watt lamps as necessary. The plants were employed for testing when they reached the second or third true leaf stage. Treatments consisted of compounds 45, 34, and 66. Weighed amounts of technical compounds were placed in individual 25 mL glass vials and dissolved in 8 mL of 97:3 v/v acetone-DMSO to obtain stock solutions. […] The spray application solutions were prepared by removing 4 mL of the stock solution and diluting with 4 mL of 97:3 v/v acetone-DMSO and continued serial dilution to obtain 1⁄2×, 1⁄4×, 1⁄8×, and 1/16× rates of the high rate. Spray solutions were diluted to the appropriate final concentrations with the addition of 8 mL of an aqueous mixture of 1.875% (v/v) Agri-dex crop oil concentrate. The final 12-mL spray solutions each contained 1.25% (v/v) Agri-dex crop oil concentrate, 32.3% acetone, and 1.0% DMSO. Compound requirements are based upon a 12 mL application volume at a rate of 187 L/ha. Spray solutions were applied to the plant material with an overhead Mandel track sprayer equipped with […] nozzles calibrated to deliver 187 L/ha over an application area of 0.503 square meters (m^2) at a spray height of 18 inches ([…]) above average plant canopy height. Control plants were sprayed in the same manner with the solvent blank. The treated plants and control plants were placed in a greenhouse as described above and watered by sub-irrigation to prevent wash-off of the test compounds. After approximately 3 weeks, the condition of the test plants, compared with that of the untreated plants, was determined visually and scored on a scale of 0 to 100 percent where 0 corresponds to no injury and 100 corresponds to complete kill. By applying the well-accepted probit analysis as described by J. Berkson in Journal of the […], 48, 565 (1953) and by D. Finney in “Probit Analysis” Cambridge University Press (1952) or by plotting the mean data and fitting a logarithmic curve to the portion of the data where there was a dose response using Microsoft Excel®, the above data can be used to calculate GR50 and GR90 values, which are defined as growth reduction factors that correspond to the effective dose of herbicide required to kill or control 50 percent or 90 percent, respectively, of a target plant.

COc1c(C(=O)OCc2ccccc2)nc(-c2ccc(Cl)c(OC)c2F)c(F)c1N [Compound 66, benzyl 4-amino-6-(4-chloro-2-fluoro-3-methoxyphenyl)-5-fluoro-3-methoxypicolinate]
Mean Visual Injury (%)-21 Days After Application AESSE (AESSE (Aeschynomene sensitiva, sensitive jointvetch), 4.38 g ae/ha): 100%
Mean Visual Injury (%)-21 Days After Application AESSE (AESSE (Aeschynomene sensitiva, sensitive jointvetch), 8.75 g ae/ha): 100%
Mean Visual Injury (%)-21 Days After Application AESSE (AESSE (Aeschynomene sensitiva, sensitive jointvetch), 17.5 g ae/ha): 100%
Mean Visual Injury (%)-21 Days After Application AESSE (AESSE (Aeschynomene sensitiva, sensitive jointvetch), 35 g ae/ha): 100%
Mean Visual Injury (%)-21 Days After Application AESSE (AESSE (Aeschynomene sensitiva, sensitive jointvetch), 70 g ae/ha): 100%
GR50 AESSE (AESSE (Aeschynomene sensitiva, sensitive jointvetch), dose to kill or control 50 percent): <4.38 g ae/ha
GR90 AESSE (AESSE (Aeschynomene sensitiva, sensitive jointvetch), dose to kill or control 90 percent): <4.38 g ae/ha
Mean Visual Injury (%)-21 Days After Application BRAPP (BRAPP (Brachiaria platyphylla, broadleaf signalgrass), 2.19 g ae/ha): 53%
Mean Visual Injury (%)-21 Days After Application BRAPP (BRAPP (Brachiaria platyphylla, broadleaf signalgrass), 4.38 g ae/ha): 72%
Mean Visual Injury (%)-21 Days After Application BRAPP (BRAPP (Brachiaria platyphylla, broadleaf signalgrass), 8.75 g ae/ha): 83%
Mean Visual Injury (%)-21 Days After Application BRAPP (BRAPP (Brachiaria platyphylla, broadleaf signalgrass), 17.5 g ae/ha): 90%
Mean Visual Injury (%)-21 Days After Application BRAPP (BRAPP (Brachiaria platyphylla, broadleaf signalgrass), 35 g ae/ha): 87%
Mean Visual Injury (%)-21 Days After Application BRAPP (BRAPP (Brachiaria platyphylla, broadleaf signalgrass), 70 g ae/ha): 93%
GR50 BRAPP (BRAPP (Brachiaria platyphylla, broadleaf signalgrass), dose to kill or control 50 percent): <2.19 g ae/ha
GR90 BRAPP (BRAPP (Brachiaria platyphylla, broadleaf signalgrass), dose to kill or control 90 percent): 34.4 g ae/ha
Mean Visual Injury (%)-21 Days After Application CYPDI (CYPDI (Cyperus difformis, small-flower flatsedge), 2.19 g ae/ha): 70%
Mean Visual Injury (%)-21 Days After Application CYPDI (CYPDI (Cyperus difformis, small-flower flatsedge), 4.38 g ae/ha): 91%
Mean Visual Injury (%)-21 Days After Application CYPDI (CYPDI (Cyperus difformis, small-flower flatsedge), 8.75 g ae/ha): 96%
Mean Visual Injury (%)-21 Days After Application CYPDI (CYPDI (Cyperus difformis, small-flower flatsedge), 17.5 g ae/ha): 100%
Mean Visual Injury (%)-21 Days After Application CYPDI (CYPDI (Cyperus difformis, small-flower flatsedge), 35 g ae/ha): 99%
Mean Visual Injury (%)-21 Days After Application CYPDI (CYPDI (Cyperus difformis, small-flower flatsedge), 70 g ae/ha): 97%
GR50 CYPDI (CYPDI (Cyperus difformis, small-flower flatsedge), dose to kill or control 50 percent): <2.19 g ae/ha
GR90 CYPDI (CYPDI (Cyperus difformis, small-flower flatsedge), dose to kill or control 90 percent): 6.6 g ae/ha
Mean Visual Injury (%)-21 Days After Application CYPES (CYPES (Cyperus esculentus, yellow nutsedge), 2.19 g ae/ha): 60%
Mean Visual Injury (%)-21 Days After Application CYPES (CYPES (Cyperus esculentus, yellow nutsedge), 4.38 g ae/ha): 67%
Mean Visual Injury (%)-21 Days After Application CYPES (CYPES (Cyperus esculentus, yellow nutsedge), 8.75 g ae/ha): 93%
Mean Visual Injury (%)-21 Days After Application CYPES (CYPES (Cyperus esculentus, yellow nutsedge), 35 g ae/ha): 94%
Mean Visual Injury (%)-21 Days After Application CYPES (CYPES (Cyperus esculentus, yellow nutsedge), 70 g ae/ha): 95%
GR50 CYPES (CYPES (Cyperus esculentus, yellow nutsedge), dose to kill or control 50 percent): <2.19 g ae/ha
GR90 CYPES (CYPES (Cyperus esculentus, yellow nutsedge), dose to kill or control 90 percent): 13.1 g ae/ha
Mean Visual Injury (%)-21 Days After Application CYPIR (CYPIR (Cyperus iria, rice flatsedge), 2.19 g ae/ha): 43%
Mean Visual Injury (%)-21 Days After Application CYPIR (CYPIR (Cyperus iria, rice flatsedge), 4.38 g ae/ha): 81%
Mean Visual Injury (%)-21 Days After Application CYPIR (CYPIR (Cyperus iria, rice flatsedge), 8.75 g ae/ha): 99%
Mean Visual Injury (%)-21 Days After Application CYPIR (CYPIR (Cyperus iria, rice flatsedge), 17.5 g ae/ha): 100%
Mean Visual Injury (%)-21 Days After Application CYPIR (CYPIR (Cyperus iria, rice flatsedge), 35 g ae/ha): 100%
Mean Visual Injury (%)-21 Days After Application CYPIR (CYPIR (Cyperus iria, rice flatsedge), 70 g ae/ha): 99%
GR50 CYPIR (CYPIR (Cyperus iria, rice flatsedge), dose to kill or control 50 percent): 2.4 g ae/ha
GR90 CYPIR (CYPIR (Cyperus iria, rice flatsedge), dose to kill or control 90 percent): 6.4 g ae/ha
Mean Visual Injury (%)-21 Days After Application ECHCG (ECHCG (Echinochloa crus-galli, barnyardgrass), 2.19 g ae/ha): 78%
Mean Visual Injury (%)-21 Days After Application ECHCG (ECHCG (Echinochloa crus-galli, barnyardgrass), 4.38 g ae/ha): 86%
Mean Visual Injury (%)-21 Days After Application ECHCG (ECHCG (Echinochloa crus-galli, barnyardgrass), 8.75 g ae/ha): 95%
Mean Visual Injury (%)-21 Days After Application ECHCG (ECHCG (Echinochloa crus-galli, barnyardgrass), 17.5 g ae/ha): 96%
Mean Visual Injury (%)-21 Days After Application ECHCG (ECHCG (Echinochloa crus-galli, barnyardgrass), 35 g ae/ha): 97%
Mean Visual Injury (%)-21 Days After Application ECHCG (ECHCG (Echinochloa crus-galli, barnyardgrass), 70 g ae/ha): 95%
GR50 ECHCG (ECHCG (Echinochloa crus-galli, barnyardgrass), dose to kill or control 50 percent): <42.19 g ae/ha
GR90 ECHCG (ECHCG (Echinochloa crus-galli, barnyardgrass), dose to kill or control 90 percent): 8.3 g ae/ha
Mean Visual Injury (%)-21 Days After Application ECHCO (ECHCO (Echinochloa colonum, junglerice), 2.19 g ae/ha): 62%
